In PubChem BioAssay AID2060613 (Molecular Pharmacology Branch, DTP, NCI, 2025):
Blank lines part the entries; values can stand above or below the compound they belong to.

System: 233499-124-R-J3-PDC complex spheroid viability
Experiment: Anticancer human tumor 233499-124-R-J3-PDC patient-derived colon adenocarcinoma cell line growth inhibition [CLK]
Conditions: for IC50: curve of first compound; for viability, T/C: stronger effect = lower value
Procedure, shortened: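 Multi-cell-type spheroids combined patient-derived tumor cells with HUVEC endothelial cells and human mesenchymal stem cells. Paired agents were dosed in half-log steps down from about clinical Cmax, or from 10 microM where Cmax was unknown.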
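Note: spheroids exposed to the drug combinations for seven days.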
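Throughout, for viability, T/C: percent viability relative to DMSO vehicle control wells taken as 100%.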

- IC50 (second compound 0.0316 µM): > 1000 nM
- IC50 (second compound 0.1 µM): > 1000 nM
- IC50 (second compound 0.316 µM): > 1000 nM
- IC50 (second compound 1 µM): 971 nM
- IC50 (second compound 3.16 µM): > 1000 nM
- IC50 (second compound 10 µM): > 1000 nM
SMILES: CCN1CCN(Cc2ccc(Nc3ncc(F)c(-c4cc(F)c5nc(C)n(C(C)C)c5c4)n3)nc2)CC1 + CNC(=O)c1ccc(Nc2nc(OC3CCCC3)c3c(-c4ccc5nc(C)oc5c4)c[nH]c3n2)c(OC)c1
- viability, T/C (second compound 0.0316 µM, first compound 0.00316 µM): 88.3%
- viability, T/C (second compound 0.0316 µM, first compound 0.01 µM): 98.3%
- viability, T/C (second compound 0.0316 µM, first compound 0.0316 µM): 90%
- viability, T/C (second compound 0.0316 µM, first compound 0.1 µM): 106%
- viability, T/C (second compound 0.0316 µM, first compound 0.316 µM): 102%
- viability, T/C (second compound 0.0316 µM, first compound 1 µM): 70.1%
- viability, T/C (second compound 0.1 µM, first compound 0.00316 µM): 71.7%
- viability, T/C (second compound 0.1 µM, first compound 0.01 µM): 91.6%
- viability, T/C (second compound 0.1 µM, first compound 0.0316 µM): 84.8%
- viability, T/C (second compound 0.1 µM, first compound 0.1 µM): 83.8%
- viability, T/C (second compound 0.1 µM, first compound 0.316 µM): 89.3%
- viability, T/C (second compound 0.1 µM, first compound 1 µM): 64%
- viability, T/C (second compound 0.316 µM, first compound 0.00316 µM): 68.8%
- viability, T/C (second compound 0.316 µM, first compound 0.01 µM): 84.3%
- viability, T/C (second compound 0.316 µM, first compound 0.0316 µM): 78%
- viability, T/C (second compound 0.316 µM, first compound 0.1 µM): 94.2%
- viability, T/C (second compound 0.316 µM, first compound 0.316 µM): 62.7%
- viability, T/C (second compound 0.316 µM, first compound 1 µM): 53.1%
- viability, T/C (second compound 1 µM, first compound 0.00316 µM): 77.2%
- viability, T/C (second compound 1 µM, first compound 0.01 µM): 85.9%
- viability, T/C (second compound 1 µM, first compound 0.0316 µM): 74.3%
- viability, T/C (second compound 1 µM, first compound 0.1 µM): 85.3%
- viability, T/C (second compound 1 µM, first compound 0.316 µM): 84.5%
- viability, T/C (second compound 1 µM, first compound 1 µM): 49.2%
- viability, T/C (second compound 3.16 µM, first compound 0.00316 µM): 81.1%
- viability, T/C (second compound 3.16 µM, first compound 0.01 µM): 75.2%
- viability, T/C (second compound 3.16 µM, first compound 0.0316 µM): 78.1%
- viability, T/C (second compound 3.16 µM, first compound 0.1 µM): 78.7%
- viability, T/C (second compound 3.16 µM, first compound 0.316 µM): 97.2%
- viability, T/C (second compound 3.16 µM, first compound 1 µM): 57.6%
- viability, T/C (second compound 10 µM, first compound 0.00316 µM): 76.4%
- viability, T/C (second compound 10 µM, first compound 0.01 µM): 80.9%
- viability, T/C (second compound 10 µM, first compound 0.0316 µM): 66.8%
- viability, T/C (second compound 10 µM, first compound 0.1 µM): 74.5%
- viability, T/C (second compound 10 µM, first compound 0.316 µM): 60.1%
- viability, T/C (second compound 10 µM, first compound 1 µM): 51.1%

SMILES: C=CC(=O)Nc1cc(Nc2nccc(-c3cn(C)c4ccccc34)n2)c(OC)cc1N(C)CCN(C)C + CN1CCN(c2cc(C(=O)Nc3cc4cc(-c5cnn(C)c5)ccc4cn3)ccn2)CC1
- IC50 (second compound 0.0316 µM): > 300 nM
- IC50 (second compound 0.1 µM): > 300 nM
- IC50 (second compound 0.316 µM): > 300 nM
- IC50 (second compound 1 µM): < 0.949 nM
- IC50 (second compound 3.16 µM): < 0.949 nM
- IC50 (second compound 10 µM): < 0.949 nM
- viability, T/C (second compound 0.0316 µM, first compound 0.000949 µM): 85.9%
- viability, T/C (second compound 0.0316 µM, first compound 0.003 µM): 100%
- viability, T/C (second compound 0.0316 µM, first compound 0.00949 µM): 102%
- viability, T/C (second compound 0.0316 µM, first compound 0.03 µM): 104%
- viability, T/C (second compound 0.0316 µM, first compound 0.0949 µM): 99.3%
- viability, T/C (second compound 0.0316 µM, first compound 0.3 µM): 91.8%
- viability, T/C (second compound 0.1 µM, first compound 0.000949 µM): 98%
- viability, T/C (second compound 0.1 µM, first compound 0.003 µM): 102%
- viability, T/C (second compound 0.1 µM, first compound 0.00949 µM): 93.7%
- viability, T/C (second compound 0.1 µM, first compound 0.03 µM): 97.9%
- viability, T/C (second compound 0.1 µM, first compound 0.0949 µM): 94.5%
- viability, T/C (second compound 0.1 µM, first compound 0.3 µM): 83%
- viability, T/C (second compound 0.316 µM, first compound 0.000949 µM): 90.3%
- viability, T/C (second compound 0.316 µM, first compound 0.003 µM): 92.2%
- viability, T/C (second compound 0.316 µM, first compound 0.00949 µM): 89.7%
- viability, T/C (second compound 0.316 µM, first compound 0.03 µM): 89.4%
- viability, T/C (second compound 0.316 µM, first compound 0.0949 µM): 93.8%
- viability, T/C (second compound 0.316 µM, first compound 0.3 µM): 76.6%
- viability, T/C (second compound 1 µM, first compound 0.000949 µM): 4.73%
- viability, T/C (second compound 1 µM, first compound 0.003 µM): 9.3%
- viability, T/C (second compound 1 µM, first compound 0.00949 µM): 0.69%
- viability, T/C (second compound 1 µM, first compound 0.03 µM): 1.14%
- viability, T/C (second compound 1 µM, first compound 0.0949 µM): 0.77%
- viability, T/C (second compound 1 µM, first compound 0.3 µM): 0.67%
- viability, T/C (second compound 3.16 µM, first compound 0.000949 µM): 0.69%
- viability, T/C (second compound 3.16 µM, first compound 0.003 µM): 0.65%
- viability, T/C (second compound 3.16 µM, first compound 0.00949 µM): 0.63%
- viability, T/C (second compound 3.16 µM, first compound 0.03 µM): 0.6%
- viability, T/C (second compound 3.16 µM, first compound 0.0949 µM): 0.55%
- viability, T/C (second compound 3.16 µM, first compound 0.3 µM): 1.62%
- viability, T/C (second compound 10 µM, first compound 0.000949 µM): 0.51%
- viability, T/C (second compound 10 µM, first compound 0.003 µM): 0.59%
- viability, T/C (second compound 10 µM, first compound 0.00949 µM): 0.58%
- viability, T/C (second compound 10 µM, first compound 0.03 µM): 0.51%
- viability, T/C (second compound 10 µM, first compound 0.0949 µM): 0.4%
- viability, T/C (second compound 10 µM, first compound 0.3 µM): 0.27%
